From patent publication US9955691B2, “Macrocyclic picolinamides as fungicides” (DOW AGROSCIENCES LLC, priority 2014, dated 2018)
Read-outs that look alike come from different tables or passages of the source.

Experiments:
[1] = system: Puccinia triticina; test: Fungicidal activity: Wheat Brown Rust (PUCCRT); type: in vivo; settings: Low Volume (121.5 g/H)
How it was run: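 Percent control of brown rust was derived from 0-100% severity on treated versus untreated first leaves. Yuma wheat seedlings were spray-treated to run-off (acetone/water, Triton X-100) and inoculated with P. triticina spores before or after treatment, then held overnight in dark dew at 22° C and moved to a 24° C greenhouse.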

[2] = system: Mycosphaerella graminicola; Anamorph: Septoria tritici; test: Fungicidal activity: Leaf Blotch of Wheat (SEPTTR); type: in vivo; settings: Zymoseptoria tritici, Low Volume (121.5 g/H), wheat leaf blotch
How it was run: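 Compounds were dissolved in acetone, diluted with nine volumes of water containing 110 ppm Triton X-100, and sprayed to run-off on first-leaf Yuma wheat seedlings inoculated with Septoria tritici spores before or after treatment. Plants were held in a dew chamber, then a 20° C. greenhouse. Percent control was derived from disease severity relative to untreated plants.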

CCOCC(=O)OCOc1c(OC)ccnc1C(=O)N[C@H]1COC[C@H](Cc2ccc(Cl)cc2)[C@@H](C2CCCC2)[C@H](C)OC1=O [compound 90, ((2-(((3S,7R,8R,9S)-7-(4-chlorobenzyl)-8-cyclopentyl-9-methyl-2-oxo-1,5-dioxonan-3-yl)carbamoyl)-4-methoxypyridin-3-yl)oxy)methyl 2-ethoxyacetate]
pest or weed control at 121.5 g/ha ([1]; 24 h, 1 Day Protectant, read-out: PUCCRT 1 DP disease control): > 70%
pest or weed control at 121.5 g/ha ([1]; 72 h, 3 Day Curative, read-out: PUCCRT 3 DC disease control): < 70%
melting point: 52 to 55 °C
pest or weed control at 121.5 g/ha ([2]; 24 h, 1 Day Protectant, read-out: SEPTTR 1 DP disease control): > 70%
pest or weed control at 121.5 g/ha ([2]; 72 h, 3 Day Curative, read-out: SEPTTR 3 DC disease control): > 70%
